Publication PMC7933930, “Development of a small molecule that corrects misfolding and increases secretion of Z α1‐antitrypsin” (EMBO Molecular Medicine, 2021)
Read-outs that look alike come from different tables or passages of the source.

Columns and labels:
[1] = system: Z α1‐antitrypsin secretion in CHO‐TET‐ON‐Z‐A1AT cells; assay: Secretion of Z α1‐antitrypsin from CHO‐TET‐ON‐Z‐A1AT cells (TR‐FRET); type: cell-based; conditions: n = 74, read-out: mean pEC50, secretion of Z α1‐antitrypsin (converted)
[2] = ChromLogD; type: physicochemical; conditions: pH 7.4; pH7.4
Experimental: ChromLogD was measured as previously described (Valkó et al, 1997).

[3] = Total and unbound drug concentrations in blood and liver of Z α1‐antitrypsin transgenic mice; type: in vivo; conditions: for concentration at 123 h / concentration at 128 h / concentration at 339 h / concentration at 483 h: female, mouse, oral
Experimental: GSK716 was evaluated in a transgenic mouse model with an engineered random insertion of the human Z α1‐antitrypsin gene (Teckman et al, 2004). […] Further, older mice have larger α1‐antitrypsin inclusions that may be more difficult to reverse and any changes would be more difficult to detect than in younger animals. The PK‐PD relationship of GSK716 was explored by dosing Z α1‐antitrypsin transgenic animals with 10, 30 or 100 mg/kg GSK716 three times a day. […] Blood was also harvested for the measurement of monomeric Z α1‐antitrypsin in plasma. Total concentrations of GSK716 were determined by LC‐MS/MS, and the free drug in both tissues was determined using equilibrium dialysis to determine free fraction in the samples, subsequently used to derive unbound concentrations. […] Both free and total drug concentrations of GSK716 at the targeted site of action in the liver were equivalent to those in blood (Table 2).
Male CD‐1 mice, Han Wistar rats or beagle dogs were administered GSK716 as a suspension in 1% w/v aqueous methylcellulose via oral gavage at doses of 1 mg/kg (dog) or 10, 30 and 100 mg/kg (mouse, rat). Blood samples were taken into EDTA, diluted and mixed with acetonitrile containing internal standard (alprazolam) and centrifuged to precipitate proteins. Aliquots of the resultant supernatant were analysed by LC‐MS/MS, and concentrations of GSK716 in blood were determined. Non‐compartmental pharmacokinetic analysis (NCA) was carried out using Phoenix WinNonLin 6.3 (Certara L.P.). Free drug was measured in Z α1‐antitrypsin transgenic mice by dialysing tissue samples in rapid equilibrium dialysis cassettes.
Hemizygous female Z α1‐antitrypsin transgenic mice were 13–15 weeks of age at start of study. Drugs were administered via oral gavage three times a day at 8‐h intervals at 10 ml/Kg as a suspension in aqueous methylcellulose containing 0.5% w/v Tween 80. In life, blood sampling was performed vial tail nick. Animals were housed in licensed, approved housing in the UK with appropriate enrichment. Animals were randomly assigned to groups using manual methods. Histopathology analysis was performed blind.

[4] = system: serum albumin; assay: Circulating serum albumin in Z α1‐antitrypsin transgenic mice; type: in vivo, mouse; conditions: after 5 days of dosing
Experimental: A significant fraction of the total Z α1‐antitrypsin in the circulation is in the polymeric conformation (Tan et al, 2014). There are no antibodies that are specific for monomeric Z α1‐antitrypsin and so to directly determine its concentration, a deconvolution method was developed based on immunoassays with antibodies for either total or polymeric α1‐antitrypsin, and calibration curves with purified monomeric and polymeric Z α1‐antitrypsin. Monomeric Z α1‐antitrypsin was measured in plasma samples following 6 days of dosing, and levels were normalised to each animals’ pre‐dose control levels to account for the natural variation of Z α1‐antitrypsin between animals. […] Total drug levels and changes in Z α1‐antitrypsin following 3 days of dosing were indistinguishable from those following 6 days of dosing. There was no effect on circulating serum albumin after 5 days of dosing which provides evidence that GSK716 is specific for Z α1‐antitrypsin. Moreover, the effects are not mediated by metabolites of GSK716 as the major metabolites have much reduced or no binding to α1‐antitrypsin.

[5] = target: Acetyl- cholinesterase (Homo sapiens, UniProt P22303); assay: Off‐target panel: Acetyl- cholinesterase; type: biochemical
Experimental: (§1) GSK716 selectivity and PK properties were profiled in order to investigate the suitability of GSK716 for progression into in vivo studies and the potential for taking it forward as a clinical candidate for testing in humans. Since GSK716 results in loss of inhibitory activity of α1‐antitrypsin, the effect of the compound was assessed on other closely related serpins. […] Furthermore, there were no off‐target effects in a panel of assays considered predictive of known safety liabilities that precluded further development of GSK716 (Table EV1).

[6] = target: Adrenergic α2C (Homo sapiens, UniProt P18825); assay: Off‐target panel: Adrenergic α2C (DRX); type: cell-based
Experimental: as §1

[7] = target: T1, Muscarinic M2 (Homo sapiens, UniProt P08172); assay: Off‐target panel: Muscarinic M2; type: cell-based
T1 sequence (P08172 1-466): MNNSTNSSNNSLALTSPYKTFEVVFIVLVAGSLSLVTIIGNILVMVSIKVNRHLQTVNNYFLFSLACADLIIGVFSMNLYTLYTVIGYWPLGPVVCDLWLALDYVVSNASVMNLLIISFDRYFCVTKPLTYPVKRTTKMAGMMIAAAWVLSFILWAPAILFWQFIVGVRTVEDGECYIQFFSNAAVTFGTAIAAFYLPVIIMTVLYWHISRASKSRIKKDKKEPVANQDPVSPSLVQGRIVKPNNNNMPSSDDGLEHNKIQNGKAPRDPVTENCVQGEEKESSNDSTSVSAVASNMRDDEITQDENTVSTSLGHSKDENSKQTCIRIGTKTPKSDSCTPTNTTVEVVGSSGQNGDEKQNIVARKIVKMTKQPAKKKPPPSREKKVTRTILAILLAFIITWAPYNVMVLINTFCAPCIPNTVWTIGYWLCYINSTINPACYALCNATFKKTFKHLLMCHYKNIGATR
Experimental: as §1

[8] = target: NMDA (NR2B) (Homo sapiens, UniProt Q05586+Q13224); assay: Off‐target panel: NMDA (NR2B); type: cell-based
Experimental: as §1

[9] = target: OPRK1 (Homo sapiens, UniProt P41145); assay: Off‐target panel: OPRK1; type: cell-based
Experimental: as §1

[10] = Z α1-antitrypsin transgenic (hemizygous), whole blood, 100 mg/kg, 100 mg/kg three times a day, read-out: TOTAL mean concentration ± SD, Blood
[11] = Z α1-antitrypsin transgenic (hemizygous), whole blood, 100 mg/kg, 100 mg/kg three times a day, read-out: UNBOUND mean concentration ± SD, Blood
[12] = hemizygous Z α1-antitrypsin transgenic, liver, 100 mg/kg three times a day, read-out: TOTAL mean concentration ± SD, Liver

Chain of OPRK1 (P41145 whole entry, species assumed): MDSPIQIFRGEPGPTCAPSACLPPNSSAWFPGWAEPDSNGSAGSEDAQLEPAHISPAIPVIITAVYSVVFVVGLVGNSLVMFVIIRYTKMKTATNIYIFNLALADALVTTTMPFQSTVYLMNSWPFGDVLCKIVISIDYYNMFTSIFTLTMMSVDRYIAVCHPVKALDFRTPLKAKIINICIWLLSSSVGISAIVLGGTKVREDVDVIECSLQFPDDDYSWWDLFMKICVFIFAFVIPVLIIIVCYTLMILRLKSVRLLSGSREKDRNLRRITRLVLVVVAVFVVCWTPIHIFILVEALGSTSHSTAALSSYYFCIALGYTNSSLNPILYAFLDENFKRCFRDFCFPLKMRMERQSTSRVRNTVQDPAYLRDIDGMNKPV
Chain of Acetyl- cholinesterase (P22303 32-614, species assumed): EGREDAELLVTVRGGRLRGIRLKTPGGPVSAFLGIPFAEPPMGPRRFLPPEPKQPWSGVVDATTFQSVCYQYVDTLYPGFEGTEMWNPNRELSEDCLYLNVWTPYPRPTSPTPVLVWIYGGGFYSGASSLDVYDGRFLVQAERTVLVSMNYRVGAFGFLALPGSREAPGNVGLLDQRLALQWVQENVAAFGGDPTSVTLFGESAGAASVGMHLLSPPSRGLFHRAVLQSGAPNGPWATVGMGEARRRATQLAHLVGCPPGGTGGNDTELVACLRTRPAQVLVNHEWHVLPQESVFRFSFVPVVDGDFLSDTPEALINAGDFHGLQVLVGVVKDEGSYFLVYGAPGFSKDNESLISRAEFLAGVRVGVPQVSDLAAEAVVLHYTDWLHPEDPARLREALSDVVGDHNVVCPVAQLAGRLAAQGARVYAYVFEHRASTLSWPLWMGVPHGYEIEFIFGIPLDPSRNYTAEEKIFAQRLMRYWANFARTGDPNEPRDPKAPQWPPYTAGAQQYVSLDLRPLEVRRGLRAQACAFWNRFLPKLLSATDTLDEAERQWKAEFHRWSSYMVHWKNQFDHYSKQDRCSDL
Chain of Adrenergic α2C (P18825 whole entry): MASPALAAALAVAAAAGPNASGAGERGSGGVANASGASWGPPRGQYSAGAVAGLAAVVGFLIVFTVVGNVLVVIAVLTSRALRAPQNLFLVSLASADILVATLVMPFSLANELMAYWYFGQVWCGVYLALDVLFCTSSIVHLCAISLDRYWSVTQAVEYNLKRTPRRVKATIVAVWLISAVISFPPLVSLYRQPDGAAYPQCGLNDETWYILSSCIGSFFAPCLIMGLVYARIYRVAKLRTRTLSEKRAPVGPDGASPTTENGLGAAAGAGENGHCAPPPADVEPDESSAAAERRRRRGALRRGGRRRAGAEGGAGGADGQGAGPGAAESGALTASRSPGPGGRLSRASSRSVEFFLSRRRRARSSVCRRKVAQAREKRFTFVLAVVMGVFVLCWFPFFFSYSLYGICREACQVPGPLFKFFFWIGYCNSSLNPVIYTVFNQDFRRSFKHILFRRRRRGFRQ
Chain of NMDA (NR2B) (Q13224 27-1484, species assumed, other chains not shown): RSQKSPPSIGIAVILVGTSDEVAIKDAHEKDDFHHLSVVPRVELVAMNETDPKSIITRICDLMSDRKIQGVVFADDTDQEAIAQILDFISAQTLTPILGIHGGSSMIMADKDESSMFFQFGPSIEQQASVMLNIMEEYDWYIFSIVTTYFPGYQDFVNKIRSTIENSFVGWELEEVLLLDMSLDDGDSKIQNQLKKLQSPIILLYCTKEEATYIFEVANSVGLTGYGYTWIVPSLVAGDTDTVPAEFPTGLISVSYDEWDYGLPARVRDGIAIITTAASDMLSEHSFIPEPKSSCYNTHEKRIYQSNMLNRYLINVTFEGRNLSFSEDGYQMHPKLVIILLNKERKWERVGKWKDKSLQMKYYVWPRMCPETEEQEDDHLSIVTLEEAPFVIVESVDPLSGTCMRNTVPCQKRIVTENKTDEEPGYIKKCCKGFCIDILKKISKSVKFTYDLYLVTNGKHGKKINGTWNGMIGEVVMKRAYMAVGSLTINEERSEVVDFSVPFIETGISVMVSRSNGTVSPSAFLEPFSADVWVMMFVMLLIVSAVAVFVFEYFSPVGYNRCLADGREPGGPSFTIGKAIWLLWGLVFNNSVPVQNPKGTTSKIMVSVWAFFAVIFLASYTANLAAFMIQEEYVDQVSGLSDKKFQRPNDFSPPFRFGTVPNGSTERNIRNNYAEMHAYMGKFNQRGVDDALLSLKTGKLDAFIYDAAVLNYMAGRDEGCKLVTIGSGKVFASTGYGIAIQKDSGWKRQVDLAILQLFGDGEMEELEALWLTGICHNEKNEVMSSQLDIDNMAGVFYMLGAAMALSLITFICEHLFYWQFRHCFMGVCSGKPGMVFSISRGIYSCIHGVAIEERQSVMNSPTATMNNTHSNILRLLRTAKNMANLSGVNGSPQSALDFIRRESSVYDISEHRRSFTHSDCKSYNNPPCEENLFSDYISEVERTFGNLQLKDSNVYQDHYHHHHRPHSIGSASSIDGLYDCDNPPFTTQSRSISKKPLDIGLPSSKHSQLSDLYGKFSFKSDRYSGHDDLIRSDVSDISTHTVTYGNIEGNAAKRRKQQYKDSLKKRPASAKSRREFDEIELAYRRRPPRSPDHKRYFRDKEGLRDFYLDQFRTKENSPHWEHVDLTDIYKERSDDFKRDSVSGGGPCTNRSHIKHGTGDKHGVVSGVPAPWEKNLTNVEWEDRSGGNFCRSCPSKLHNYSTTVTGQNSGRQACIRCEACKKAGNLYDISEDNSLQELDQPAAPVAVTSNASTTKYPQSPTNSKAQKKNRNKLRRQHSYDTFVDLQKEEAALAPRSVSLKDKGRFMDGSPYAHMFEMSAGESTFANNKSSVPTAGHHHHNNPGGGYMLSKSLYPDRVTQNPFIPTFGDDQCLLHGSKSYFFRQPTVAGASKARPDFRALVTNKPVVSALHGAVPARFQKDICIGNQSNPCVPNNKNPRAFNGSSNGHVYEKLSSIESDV

## CCC[C@@H](NC(=O)c1cccc2c1CC(=O)N2)[C@@H](O)c1cccc(F)c1C [GSK716]
[1]
  EC50: 0.631 µM
[2]
  chromatographic logD: 3.8
[3]; 30 mg/kg three times a day, time 128 h
  UNBOUND mean concentration ± SD, Liver: 0.075 (± 0.04 µM
[3]; Z α1-antitrypsin transgenic (hemizygous), liver, 10 mg/kg, 10 mg/kg three times a day, read-out: TOTAL mean concentration ± SD, Liver
  concentration at 123 h: 3.5 µM
[3]; Z α1-antitrypsin transgenic (hemizygous), liver, 10 mg/kg, 10 mg/kg three times a day, read-out: UNBOUND mean concentration ± SD, Liver
  concentration at 123 h: 0.035 µM
[3]; Z α1-antitrypsin transgenic (hemizygous), liver, 10 mg/kg, 10 mg/kg three times a day, time 128 h, read-out: TOTAL mean concentration ± SD, Liver
  concentration at 128 h: 2.1 µM
[3]; Z α1-antitrypsin transgenic (hemizygous), liver, 10 mg/kg, 10 mg/kg three times a day, time 128 h, read-out: UNBOUND mean concentration ± SD, Liver
  concentration at 128 h: 0.028 µM
[3]; Z α1-antitrypsin transgenic (hemizygous), liver, 30 mg/kg, 30 mg/kg three times a day, read-out: TOTAL mean concentration ± SD, Liver
  concentration at 123 h: 6.7 µM
[3]; Z α1-antitrypsin transgenic (hemizygous), liver, 30 mg/kg, 30 mg/kg three times a day, read-out: UNBOUND mean concentration ± SD, Liver
  concentration at 123 h: 0.091 µM
[3]; Z α1-antitrypsin transgenic (hemizygous), liver, 30 mg/kg, 30 mg/kg three times a day, time 128 h, read-out: TOTAL mean concentration ± SD, Liver
  concentration at 128 h: 8.3 µM
[3]; Z α1-antitrypsin transgenic (hemizygous), liver, 100 mg/kg, 100 mg/kg three times a day, read-out: TOTAL mean concentration ± SD, Liver
  concentration at 123 h: 40.9 µM
[3]; Z α1-antitrypsin transgenic (hemizygous), liver, 100 mg/kg, 100 mg/kg three times a day, read-out: UNBOUND mean concentration ± SD, Liver
  concentration at 123 h: 1.05 µM
[3]; Z α1-antitrypsin transgenic (hemizygous), liver, 100 mg/kg, 100 mg/kg three times a day, time 128 h, read-out: TOTAL mean concentration ± SD, Liver
  concentration at 128 h: 28.4 µM
[3]; Z α1-antitrypsin transgenic (hemizygous), liver, 100 mg/kg, 100 mg/kg three times a day, time 128 h, read-out: UNBOUND mean concentration ± SD, Liver
  concentration at 128 h: 0.679 µM
[3]; Z α1-antitrypsin transgenic (hemizygous), whole blood, 10 mg/kg, 10 mg/kg three times a day, read-out: TOTAL mean concentration ± SD, Blood
  concentration at 123 h: 8.7 µM
[3]; Z α1-antitrypsin transgenic (hemizygous), whole blood, 10 mg/kg, 10 mg/kg three times a day, read-out: UNBOUND mean concentration ± SD, Blood
  concentration at 123 h: 0.018 µM
[3]; Z α1-antitrypsin transgenic (hemizygous), whole blood, 10 mg/kg, 10 mg/kg three times a day, time 128 h, read-out: TOTAL mean concentration ± SD, Blood
  concentration at 128 h: 7.7 µM
[3]; Z α1-antitrypsin transgenic (hemizygous), whole blood, 10 mg/kg, 10 mg/kg three times a day, time 128 h, read-out: UNBOUND mean concentration ± SD, Blood
  concentration at 128 h: 0.009 µM
[3]; Z α1-antitrypsin transgenic (hemizygous), whole blood, 30 mg/kg, 30 mg/kg three times a day, read-out: TOTAL mean concentration ± SD, Blood
  concentration at 123 h: 14 µM
[3]; Z α1-antitrypsin transgenic (hemizygous), whole blood, 30 mg/kg, 30 mg/kg three times a day, read-out: UNBOUND mean concentration ± SD, Blood
  concentration at 123 h: 0.061 µM
[3]; Z α1-antitrypsin transgenic (hemizygous), whole blood, 30 mg/kg, 30 mg/kg three times a day, time 128 h, read-out: TOTAL mean concentration ± SD, Blood
  concentration at 128 h: 13 µM
[3]; Z α1-antitrypsin transgenic (hemizygous), whole blood, 30 mg/kg, 30 mg/kg three times a day, time 128 h, read-out: UNBOUND mean concentration ± SD, Blood
  concentration at 128 h: 0.051 µM
[3]; [10]
  concentration at 123 h: 33 µM
  concentration at 339 h: 30 µM
[3]; [11]
  concentration at 123 h: 0.49 µM
  concentration at 339 h: 0.529 µM
[3]; Z α1-antitrypsin transgenic (hemizygous), whole blood, 100 mg/kg, 100 mg/kg three times a day, time 128 h, read-out: TOTAL mean concentration ± SD, Blood
  concentration at 128 h: 20 µM
[3]; Z α1-antitrypsin transgenic (hemizygous), whole blood, 100 mg/kg, 100 mg/kg three times a day, time 128 h, read-out: UNBOUND mean concentration ± SD, Blood
  concentration at 128 h: 0.18 µM
[3]; hemizygous Z α1-antitrypsin transgenic, blood, 100 mg/kg three times a day, read-out: TOTAL mean concentration ± SD, Blood
  concentration at 483 h: 22 µM
[3]; hemizygous Z α1-antitrypsin transgenic, blood, 100 mg/kg three times a day, read-out: UNBOUND mean concentration ± SD, Blood
  concentration at 483 h: 0.561 µM
[3]; [12]
  concentration at 339 h: 84.6 µM
  concentration at 483 h: 42.4 µM
[4]
  effect on circulating serum albumin: no effect
[5]
  IC50: 100 µM
[6]
  EC50: > 100 µM
[7]
  EC50: > 50.1 µM
  IC50: > 50.1 µM
[8]
  IC50: > 50.1 µM
[9]
  EC50: > 100 µM
